Test results as given in PubChem BioAssay (NCI).
Values joined by “and” are separate entries in the source; they are usually repeats but may differ in a detail not shown here. Equal values may be shown once.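 Where inhibition never reached the appropriate level, the endpoint shown equals the highest concentration tested. Otherwise, values were interpolated linearly from a five-concentration, 48-hour dose response in 96-well plates. GI50 = concentration required for 50% inhibition of growth. TGI marks complete inhibition of growth.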

Experiments:
Experiment in all cases: NCI anticancer screen, dose series, 48 h
HOP-92 NSCLC = test system: HOP-92 NSCLC
CAKI-1 renal = test system: CAKI-1 renal
PC-3 prostate = test system: PC-3 prostate
OVCAR-3 ovarian = test system: OVCAR-3 ovarian
SK-MEL-28 melanoma = test system: SK-MEL-28 melanoma
OVCAR-8 ovarian = test system: OVCAR-8 ovarian
HCC-2998 colon = test system: HCC-2998 colon
HS 578T breast = test system: HS 578T breast
HL-60(TB) leukemia = test system: HL-60(TB) leukemia
SF-539 CNS = test system: SF-539 CNS

Compound | GI50 (HOP-92 NSCLC) [µM] | TGI (HOP-92 NSCLC) [µM] | GI50 (CAKI-1 renal) [µM] | TGI (CAKI-1 renal) | GI50 (PC-3 prostate) [µM] | TGI (PC-3 prostate) [µM] | GI50 (OVCAR-3 ovarian) [µM] | TGI (OVCAR-3 ovarian) [µM] | GI50 (SK-MEL-28 melanoma) | TGI (SK-MEL-28 melanoma) | GI50 (OVCAR-8 ovarian) [µM] | TGI (OVCAR-8 ovarian) | GI50 (HCC-2998 colon) [µM] | TGI (HCC-2998 colon) [µM] | GI50 (HS 578T breast) | TGI (HS 578T breast) | GI50 (HL-60(TB) leukemia) [µM] | TGI (HL-60(TB) leukemia) | GI50 (SF-539 CNS) [µM] | TGI (SF-539 CNS)
O=C(NCCCCCCNC(=O)OCc1ccc2c(Cl)cc(Cl)c(O)c2n1)OCc1ccc2c(Cl)cc(Cl)c(O)c2n1 | 0.515 | 2.17 | 0.412 | 1.69 µM | 0.815 | 2.42 | 0.327 | 1.24 | 1.19 µM | 2.42 µM | 0.677 | 2.62 µM | 1.68 | 3.22 | 1.46 µM | 5.68 µM | 0.771 | 4.29 µM | 0.468 | 1.63 µM
c1ccc2c(c1)[nH]c1c2ncc2[nH]c3ccccc3c21 |  | 8.71 |  | 13.7 µM |  |  |  | 6.96 |  | 27.7 µM |  | 17.2 µM |  | 7.07 |  |  |  |  |  | 7.21 µM
CCCCCCCCCCCCCCCCCC[N+](C)(C)Cc1ccc(C[N+](C)(C)CCCCCCCCCCCCCCCCCC)cc1 |  | 24.8 |  | 47.7 µM |  |  |  | 40.6 |  | 35 µM |  | 30.5 µM |  | 93.7 |  |  |  |  |  | 
CSC1(CC(=O)N2CCCCC2)C(=O)Nc2ccccc21 (stereo not drawn) |  |  |  |  |  | > 100 |  | > 100 |  | > 100 µM |  |  |  | > 100 |  | > 100 µM |  |  |  | > 100 µM
CC[CH2][Sn]([CH2]CC)([O]C(=O)Cc1ccc(F)cc1)[O][Sn]([CH2]CC)([CH2]CC)[O]C(=O)Cc1ccc(F)cc1 | 0.174 | 0.522 | 0.11 | 0.481 µM | 1 | 2.16 | 0.431 | 1.27 | 0.157 µM | 0.446 µM | 0.278 | 1.41 µM | 0.439 | 1.7 |  |  | 0.0888 |  | 0.274 | 0.769 µM
Cn1c(=N)n[n+]([O-])c2ccccc21 |  | 90.9 |  | 5.86 µM and 6.18 µM |  | > 100 |  |  | 2.42 µM and 7.01 µM | 5.88 µM and 15.6 µM |  | 31.6 µM and > 55.3 µM |  | 39.1 | 2.85 µM and 5.89 µM | 6.77 µM and 18.5 µM |  | 10.1 µM and 10.4 µM |  | 3.67 µM and 2.98 µM
FC(F)(F)c1nc(-c2ccccc2)oc1Sc1oc(-c2ccccc2)nc1C(F)(F)F |  | 94.6 |  | 65.7 µM |  |  |  | > 100 |  |  |  | > 100 µM |  | > 100 |  |  |  | > 100 µM |  | > 100 µM
Cc1c(CC/C(=N\Nc2ccc([N+](=O)[O-])cc2[N+](=O)[O-])c2ccccc2)c2ccccc2n1C |  | > 100 |  | > 100 µM |  |  |  | > 100 |  | > 100 µM |  | > 100 µM |  | > 100 |  |  |  | > 81.2 µM |  | > 100 µM
Cc1ccccc1NC(=O)c1ccc([N+](=O)[O-])cc1 |  | > 100 |  | > 100 µM |  |  |  | > 100 |  | > 100 µM |  | > 100 µM |  | > 100 |  |  |  | > 100 µM |  | > 100 µM
CCCN1C(=O)CNC(=O)c2[nH]cnc21 |  | > 100 |  | > 100 µM |  |  |  | > 100 |  | > 100 µM |  | > 100 µM |  | > 100 |  |  |  | > 100 µM |  | > 100 µM
Fc1cccc(-c2[nH]nc3nc(Nc4cccnc4)sc23)c1 | > 100 | > 100 | 3.72 | > 100 µM | 6.34 | > 100 | 1.68 | 13.5 | 17.5 µM | > 100 µM | 15.7 | > 100 µM | > 100 | > 100 |  |  | 1.24 | > 100 µM | 3.02 | > 100 µM
Cn1c(=O)c2[nH]c(CCCCc3nc4c([nH]3)c(=O)n(C)c(=S)n4C)nc2n(C)c1=S |  | > 100 |  | > 100 µM |  | > 100 |  | > 100 |  | > 100 µM |  | > 100 µM |  |  |  | > 100 µM |  |  |  | > 100 µM
COC(=O)C1=C(C)N(NC(N)=O)C(C)(O)C12CCOC2=O (stereo not drawn) |  | > 100 |  | > 100 µM |  |  |  | > 100 |  | > 100 µM |  | > 100 µM |  | 45.1 |  |  |  | > 100 µM |  | > 100 µM
Nc1ncnc2c1ncn2C1OC(COC2C(CO)OC(OC(C(=O)O)C(O)C(OP(=O)(O)O)C(O)C(=O)O)C(O)C2O)C(O)C1O (stereo not drawn) |  |  |  | > 100 µM |  | > 100 |  | > 100 |  | > 100 µM |  | > 100 µM |  | > 100 |  | 91.2 µM |  | > 100 µM |  | > 100 µM
c1ccc2c3c(ccc2c1)-c1c(ccc2c(NCCCCN4CCCCC4)cccc12)C3 | 2.46 | 7.73 |  |  | 1.61 | 3.23 | 1.21 | 2.52 | 1.88 µM | 4.06 µM | 2.19 | 5.61 µM | 1.63 | 3.49 |  |  | 2.48 | 14.6 µM | 1.79 | 3.44 µM
COC1CC(OC)C(O)C(CO)O1 (stereo not drawn) |  |  |  |  |  |  |  | > 100 |  | > 100 µM |  | > 100 µM |  | > 100 |  |  |  | > 100 µM |  | > 100 µM
O=C(C=Nc1ccccc1C(=O)[O-])c1cccs1.O=C(C=Nc1ccccc1C(=O)[O-])c1cccs1.[Zn+2] |  | 64 |  | > 100 µM |  |  |  | 29.1 |  | > 100 µM |  | > 100 µM |  | > 10 |  |  |  | > 100 µM |  | > 100 µM
Cc1ccc2c(c1)C=CC(C#N)N2C(=O)Oc1ccccc1 (stereo not drawn) |  | 64.7 |  | > 100 µM |  | 97.9 |  |  |  | > 100 µM |  | 31.1 µM |  | 31.2 |  | > 100 µM |  | 50.5 µM |  | > 100 µM
COc1ccc(C2C3=C(COC3=O)Oc3cc4c(cc32)OCO4)cc1 (stereo not drawn) |  | 68.1 |  | > 100 µM |  |  |  | 41.3 |  | > 100 µM |  | > 100 µM |  |  |  |  |  | 25 µM |  | 56.6 µM
Cc1ccc(NC(=O)CC2C(=O)Nc3ccccc3S2=O)c(C)c1 (stereo not drawn) |  | 29.8 |  | > 48.4 µM |  |  |  | 23.2 |  | > 100 µM |  | 34.1 µM |  | > 72.6 |  |  |  | 11 µM |  | 26.3 µM
O=C(O)[C@@H](NS(=O)(=O)c1ccc([N+](=O)[O-])cc1)c1ccccc1 |  | > 100 |  | > 100 µM |  |  |  | > 100 |  | > 100 µM |  | > 100 µM |  | > 100 |  |  |  | > 100 µM |  | > 100 µM
